Experimental data published in patent publication US8759535B2, “Substituted fused imidazole derivatives, pharmaceutical compositions, and methods of use thereof” (High Point Pharmaceuticals, LLC, priority 2010, dated 2014).
Where a name gives a salt, the structure may show the parent alone.

System: HMOX1
Assay: HMOX1 Protein Assay (immunostaining of HO-1 in NHLF cells, GE InCell 1000)
Assay type: cell-based
Conditions: Homo sapiens, fold change above DMSO treated cells, 16 h; for fold induction at 3 µM: 3 μM compound (asterisk); for fold induction at 5 µM: 5 μM compound
Method: Cell Culture. Normal Human Fibroblast (NHLF), were obtained from Lonza. Cultures of cells were maintained in Fibroblast Growth Medium (FGM-2) medium supplemented with 2% fetal bovine serum (FBS), Fibroblast Growth Factor (hFGF-B) 0.5 mL, Insulin 0.5 mL, gentamicin/amphotericin-B 0.5 mL at 37° C. in a humidified atmosphere of 5% CO2. Cells were grown to 80% confluence before treating.
HMOX1 Protein Assay. NHLF cells were grown to 80% confluency and harvested by washing once with HEPES and then trypsinized. Equal numbers (2×10^3 cells per well) of NHLF cells were plated in 384 well optilux tissue culture (BD) plates. Cells were incubated overnight in FGM-2 medium prior to exposure to compound. Cells were treated with either vehicle (DMSO) or compound (dissolved in vehicle) for 16 h. Cells were washed 2× with 1×PBS and fixed with 4% Paraformaldyhyde for 15 min. The fixed cells were then permeabalized with 0.1% Triton X-100 and blocked with 5% BSA in 1×PBS 0.05% Tween-20 for 15 min. HO-1 antibody (abcam) was used for immunostaining at 1:300 dilution in 1% BSA in 1×PBS for 1 hour. Cells were washed 2× with 1×PBS and secondary antibody goat anti-mouse Alexa 488 1:400 dilution (Invitrogen); Hoechst 1:2000 (Invitrogen) in 1% BSA in 1×PBS for 1 hour. Plate was washed 5× with 1×PBS and read at Hoechst Ex.360 […]; Alexa 488 Ex.480 Em. 535 using GE InCell 1000. Results analyzed using GE InCell Analyzer software. Heme oxygenase data represents the fold change above DMSO treated cells.
In general, the fold induction data are reported for 5 μM concentration (i.e., μ-moles of compound to total volume, where the solvent is about 99.2% media and 0.8% DMSO). In some instances, the reported data are for 3 μM concentration, which are indicated by an asterisk (*).

| SMILES | fold induction at 3 µM | fold induction at 5 µM |
| --- | --- | --- |
| C[C@H](NC(=O)c1ccc2c(c1)nc(Nc1nc3ccc(C(F)(F)F)cc3s1)n2C)C(=O)N(C)C [Example 463, 1-Methyl-2-(6-trifluoromethyl-benzothiazol-2-ylamino)-1H-benzoimidazole-5-carboxylic acid ((S)-1-dimethylcarbamoyl-ethyl)-amide] | 26.7 | – |
| Cn1c(Nc2nc3ccc(OC(F)(F)F)cc3s2)nc2cc(C(=O)NCC(=O)N3CCC(CF)CC3)ccc21 [Example 448, 1-Methyl-2-(6-trifluoromethoxy-benzothiazol-2-ylamino)-1H-benzoimidazole-5-carboxylic acid [2-(4-fluoromethyl-piperidin-1-yl)-2-oxo-ethyl]-amide] | – | 36.7 |
| Cn1c(Nc2nc3ccc(Cl)cc3s2)nc2cc(C(=O)NCCN3CCNC(=O)C3)ccc21 [Example 331, 2-(6-Chloro-benzothiazol-2-ylamino)-1-methyl-1H-benzoimidazole-5-carboxylic acid [2-(3-oxo-piperazin-1-yl)-ethyl]-amide] | – | 70.1 |
| CN[C@H]1CCN(C(=O)CNC(=O)c2ccc3c(c2)nc(Nc2nc4ccc(OC(F)(F)F)cc4s2)n3C)C1 [Example 414, 1-Methyl-2-(6-trifluoromethoxy-benzothiazol-2-ylamino)-1H-benzoimidazole-5-carboxylic acid [2-((S)-3-methylamino-pyrrolidin-1-yl)-2-oxo-ethyl]-amide hydrochloride] | – | 25.7 |
| Cn1c(Nc2nc3ccc(Cl)cc3s2)nc2cc(C(=O)NCCC(=O)N3CCOCC3)ccc21 [Example 373, 2-(6-Chloro-benzothiazol-2-ylamino)-1-methyl-1H-benzoimidazole-5-carboxylic acid (3-morpholin-4-yl-3-oxo-propyl)-amide] | 32 | – |
| Cn1c(Nc2nc3ccc(OC(F)(F)F)cc3s2)nc2cc(C(=O)NCCCn3cccn3)ccc21 [Example 11, 1-Methyl-2-(6-trifluoromethoxy-benzothiazol-2-ylamino)-1H-benzoimidazole-5-carboxylic acid (3-pyrazol-1-yl-propyl)-amide] | – | 25 |
| COC(=O)c1cc2nc(Nc3nc4ccc(OC(F)(F)F)cc4s3)n(C)c2cc1OC [Example 61, 6-Methoxy-1-methyl-2-(6-trifluoromethoxy-benzothiazol-2-ylamino)-1H-benzoimidazole-5-carboxylic acid methyl ester] | – | 12.1 |
| Cn1c(Nc2nc3ccc(OC(F)(F)F)cc3s2)nc2cc(C(=O)NCCN3CCS(=O)(=O)CC3)ccc21 [Example 342, 1-Methyl-2-(6-trifluoromethoxy-benzothiazol-2-ylamino)-1H-benzoimidazole-5-carboxylic acid [2-(1,1-dioxo-thiomorpholin-4-yl)-ethyl]-amide] | 36.8 | – |
| Cn1c(Nc2nc3ccc(OC(F)(F)F)cc3s2)nc2cc(C(=O)NCC3CN(C(=O)OC(C)(C)C)CCO3)ccc21 (centres unmarked) [Example 55, 2-({[1-Methyl-2-(6-trifluoromethoxy-benzothiazol-2-ylamino)-1H-benzoimidazole-5-carbonyl]-amino}methyl)-morpholine-4-carboxylic acid tert-butyl ester] | – | 4.5 |
| Cn1c(Nc2nc3ccc(Cl)cc3s2)nc2cc(C(=O)NCCOCC(F)F)ccc21 [Example 259, 2-(6-Chloro-benzothiazol-2-ylamino)-1-methyl-1H-benzoimidazole-5-carboxylic acid [2-(2,2-difluoro-ethoxy)-ethyl]-amide] | 25.4 | – |
| C[C@@H](O)CNC(=O)c1ccc2c(c1)nc(Nc1nc3ccc(OC(F)(F)F)cc3s1)n2C [Example 51, 1-Methyl-2-(6-trifluoromethoxy-benzothiazol-2-ylamino)-1H-benzoimidazole-5-carboxylic acid ((R)-2-hydroxy-propyl)-amide] | – | 9.9 |
